Where a name gives a salt, the structure may show the parent alone.
Assays:
Assay type in all cases: cell-based, human
IL-8 production [1] = assay: P. acnes-induced IL-8 production in HaCaT keratinocytes (ELISA); settings: for Dose-dependent inhibition of IL-8 production by keratinocytes stimulated by P. acnes pre-treated with meclozine analogues: 10 μM; for Dose-dependent inhibition of IL-8 production by keratinocytes stimulated by P. acnes pre-treated with meclozine analogues / decrease of IL-8 production at 6.25 μM: 24 h pre-treatment; for decrease of IL-8 production at 6.25 μM: comparison with acne drugs (FIG. 8A); for effect on IL-8 production at 6.25 μM, in words: 24 h pre-treatment (FIG. 8A)
Description: Bacterial strain and conditions of growth. P. acnes strain 6919 was obtained from the American Type Culture Collection (Manassas, Va.) and P. acnes strains RON and PIE were isolated from patient with joint infection. All strains were grown under anaerobic conditions in reinforced clostridial liquid and solid medium (RCM) (Difco Laboratories, Detroit, Mich.). P. acnes was transferred from the bacterial stock onto RCM agar plate and incubated for 5 days under anaerobic condition by using a GasPak™ EZ Anaerobic Container System (Becton Dickinson & Co, Sparks Md., USA). A single colony was transferred into 100 ml RCM and grown as described above. Bacterial suspension was then store frozen at −80° C. in presence of 10% glycerol final. This stock was called «start stock» and used for all the experiments. For routine culture, 100 ml of RCM was used and bacteria were harvested after 5 days at 37° C. by centrifugation at 7,000×g for 10 min at 4° C. Pellets were pooled and washed in about 30 ml of cold sterile PBS [1.5 mM KH2PO4, 2.7 mM Na2HPO4.7H2O, 0.15 M NaCl (pH 7.4)] and centrifuged again as described above. Finally, the bacterial pellet was suspended in sterile PBS (1:10 from volume culture).
(§1) Cell culture, pretreatment and stimulation. The immortalized human keratinocyte cell line HaCaT, fibroblast MRC5 were grown in Dulbecco's modified Eagle's medium-Glutamax-I (DMEM) with 1 mM sodium pyruvate. The immortalized human monocytic cell line ThP1 was grown in Roswell Park Memorial Institute 1640 Medium-Glutamax-I (RPMI). DMEM and RPMI were supplemented with 0.1% and 10% heat-inactivated fetal calf serum (Invitrogen), and an antibiotic/antimycotic solution (10 U/ml Pencillin, 10 μg/ml Streptomycin, 0.25 μg/ml Amphoterin) at 37° C. in humidified atmosphere containing 5% CO2 as described (Life Technologie). Primary human keratinocytes (NHDK) and fibroblast (HDF) were grown in the KGM-Gold and in FGM-2 Bullet Kit, respectively, as described by the manufacturer (Lonza). The immortalized cell lines were routinely tested to assess the absence of Mycoplasma infection. Cells, cultivated in 6- or 96-well polystyrene plates, were pretreated with appropriate molecule solution for 1 to 48 h at 37° C. in the dark at the appropriate concentration. Then, for stimulation, cells were incubated for 15 min to 24 h with the P. acnes suspension adjusted at the appropriate concentration at 37° C. in 5% CO2. For experiences using an in vitro model of psoriasis, the primary human keratinocytes (NHDK) were grown in culture medium for 24 hours. The medium was removed and replaced with culture medium containing meclozine, diclazuril and JAK inhibitor (used as positive control) at the concentrations of 0.39, 0.78, 1.56, 3.12, 6.25 and 12.5 μM and the pro-inflammatory mixture M5 (combination of IL-17A, OSM, TNF-α, IL-22, IL-1α at 10 ng/ml) was added to the cells followed by an incubation for 48 or 72 hours.
(§2) ELISA. Human IL-1β, IL-8, hBD-2 and TNF-α protein concentration were measured in the supernatants of stimulated cells using various ELISA Sets (all from Ready-Set-Go from eBioscience, except hBD-2 measurements: Human DEFB4A/BD-2 ELISA Kit from LSBio) according to the manufacturer's instructions. We used serial dilutions of recombinant human IL-1β, IL-8, hBD-2 and TNF-α for standard curve. The optical density was determined at 450 nm at a wavelength correction of 540 nm.
Both molecules, diclazuril and meclozine, were purchased separately from Sigma and tested independently on immortalized keratinocytes HaCaT cell for their capacity to inhibit the IL-8 production in a dose-dependent manner. HaCaT cells were pre-treated with diclazuril and meclozine, at the concentrations ranging from 0.39 to 50 μM, for 24 h and then stimulated with P. acnes suspension as described in Materials and Methods. The production of IL-8 was measured on culture supernatant by ELISA and the viability of cells was estimated by MTT assay (FIG. 1).

HaCaT cells = assay: MTT cell viability assay on HaCaT keratinocytes; settings: for Evaluation of cell viability after treatment with meclozine analogues on keratinocytes: 24 h, 10 μM
Description: as §1, with “The immortalized human monocytic cell line ThP1 was grown in Roswell Park Memorial Institute 1640 Medium-Glutamax-I (RPMI).” left out, “hours.” for “hours. The medium was removed and replaced with culture medium containing meclozine, diclazuril and JAK inhibitor (used as positive control) at the concentrations of 0.39, 0.78, 1.56, 3.12, 6.25 and 12.5 μM and the pro-inflammatory mixture M5 (combination of IL-17A, OSM, TNF-α, IL-22, IL-1α at 10 ng/ml) was added to the cells followed by an incubation for 48 or 72 hours.”
Cell viability assays. Viability of cells was estimated by using the MTT assay where cells were incubated with a 0.2% MTT solution in cell culture medium for 4 h at 37° C. The MTT solution was then discarded and DMSO added to solubilize the MTT-formazan cristals produced in living cells. After thorough mixing, the absorbance was measured at 540 nm.

IL-8 production [2] = assay: IL-8 production by M5-stimulated NHDK, in vitro psoriasis-like model (ELISA); settings: NHDK + M5, 48 h, JAK inhibitor at 6.25 μM (positive control)
Description: (§3) Cell culture, pretreatment and stimulation.
as §2

hBD-2 production = hBD-2 production by M5-stimulated NHDK, in vitro psoriasis-like model (ELISA); settings: NHDK + M5, 48 h, JAK inhibitor at 6.25 μM (positive control)
Description: as §3, §2

IL-8 production [3] = assay: P. acnes-induced IL-8 production in HaCaT keratinocytes (ELISA); settings: HaCaT cells pre-treated 24 h, no P. acnes stimulation

## Fc1ccc(C(OCCN2CCN(CCCc3ccccc3)CC2)c2ccc(F)cc2)cc1 [GBR 12909 dihydrochloride]
IL-8 production [1]; HaCaT
  Dose-dependent inhibition of IL-8 production by keratinocytes stimulated by P. acnes pre-treated with meclozine analogues: 78%
HaCaT cells; human
  Evaluation of cell viability after treatment with meclozine analogues on keratinocytes: 78%

## CC1=C(/C=C/C(C)=C/C=C/C(C)=C/C(=O)O)C(C)(C)CCC1 [retinoic acid]
IL-8 production [1]; HaCaT
  decrease of IL-8 production at 6.25 μM: 5%

## COc1ccc(CN2CCN(C(c3ccc(F)cc3)c3ccc(F)cc3)CC2)c(OC)c1OC [Lomerizine]
IL-8 production [1]; HaCaT
  Dose-dependent inhibition of IL-8 production by keratinocytes stimulated by P. acnes pre-treated with meclozine analogues: 58%
HaCaT cells; HaCaT, MTT
  Evaluation of cell viability after treatment with meclozine analogues on keratinocytes: 95%

## O=C(OOC(=O)c1ccccc1)c1ccccc1 [benzoyl peroxide]
IL-8 production [1]; HaCaT
  effect on IL-8 production at 6.25 μM, in words: very low none significative or no effect
HaCaT cells; HaCaT, 6.25 μM, 24 h pre-treatment (FIG. 8A)
  toxicity at 6.25 μM, in words (MTT): no toxicity

## Jak Inhibitor I
IL-8 production [2]
  inhibition of M5-stimulated IL-8 production: 49%
hBD-2 production
  inhibition of stimulated hBD-2 production: 38%

## COc1ccc(-c2ccc3cc(C(=O)O)ccc3c2)cc1C12CC3CC(CC(C3)C1)C2 [adapalene]
IL-8 production [1]; HaCaT
  decrease of IL-8 production at 6.25 μM: 20%
IL-8 production [1]; HaCaT, 12.5 μM, 24 h pre-treatment (FIG. 8B)
  IL-8 reduction at 12.5 μM: 90%

## CC[C@H]1OC(=O)[C@H](C)[C@@H](O[C@H]2C[C@@](C)(OC)[C@@H](O)[C@H](C)O2)[C@H](C)[C@@H](O[C@@H]2O[C@H](C)C[C@H](N(C)C)[C@H]2O)[C@](C)(O)C[C@@H](C)C(=O)[C@H](C)[C@@H](O)[C@]1(C)O [erythromycine]
IL-8 production [1]; HaCaT
  effect on IL-8 production at 6.25 μM, in words: very low none significative or no effect

## CCC[C@@H]1C[C@@H](C(=O)N[C@@H]([C@H]2O[C@H](SC)[C@H](O)[C@@H](O)[C@H]2O)[C@H](C)Cl)N(C)C1 [clindamycine]
IL-8 production [1]; HaCaT
  effect on IL-8 production at 6.25 μM, in words: very low none significative or no effect

## Cc1cc(-n2ncc(=O)[nH]c2=O)cc(Cl)c1Sc1ccc(Cl)cc1 [RCL PH000645-PH, PH000645-PH]
IL-8 production [1]; Homo sapiens, HaCaT cells pre-treated 24 h, then stimulated with P. acnes, read-out: IC50 of inhibition of IL-8 production
  IC50: ~3 µM
IL-8 production [3]
  IL-8 production in pretreated cells without being stimulated: no change

## CC1=C(/C=C/C(C)=C/C=C/C(C)=C\C(=O)O)C(C)(C)CCC1 [isotretinoin]
IL-8 production [1]; HaCaT
  decrease of IL-8 production at 6.25 μM: 5%

## CN1CCN(C(c2ccccc2)c2ccc(Cl)cc2)CC1 (centres unmarked) [Chlorcyclizine hydrochloride]
IL-8 production [1]; HaCaT
  Dose-dependent inhibition of IL-8 production by keratinocytes stimulated by P. acnes pre-treated with meclozine analogues: 54%
HaCaT cells; human
  Evaluation of cell viability after treatment with meclozine analogues on keratinocytes: 81%

## Cc1cccc(C)c1NC(=O)CN1CCN(CCCC(c2ccc(F)cc2)c2ccc(F)cc2)CC1 [Lidoflazine]
IL-8 production [1]; HaCaT
  Dose-dependent inhibition of IL-8 production by keratinocytes stimulated by P. acnes pre-treated with meclozine analogues: 65%
HaCaT cells; human
  Evaluation of cell viability after treatment with meclozine analogues on keratinocytes: 107%

Reference: patent US11617748B2, “Meclozine derivatives and diclazuril derivatives for use in the prevention and/or the treatment of disorders associated to the inflammation induced by P. acnes” (priority 2016, dated 2023)
